Measured values published in patent US9029377B2, “Platelet-activating factor receptor antagonists” (Merck Sharp & Dohme Corp., priority 2009, dated 2015).

Molecular target: PAFR (Homo sapiens, UniProt P25105)
Test: PAF Binding Assay (PAFR binding)

Sequence of PAFR (P25105 whole entry): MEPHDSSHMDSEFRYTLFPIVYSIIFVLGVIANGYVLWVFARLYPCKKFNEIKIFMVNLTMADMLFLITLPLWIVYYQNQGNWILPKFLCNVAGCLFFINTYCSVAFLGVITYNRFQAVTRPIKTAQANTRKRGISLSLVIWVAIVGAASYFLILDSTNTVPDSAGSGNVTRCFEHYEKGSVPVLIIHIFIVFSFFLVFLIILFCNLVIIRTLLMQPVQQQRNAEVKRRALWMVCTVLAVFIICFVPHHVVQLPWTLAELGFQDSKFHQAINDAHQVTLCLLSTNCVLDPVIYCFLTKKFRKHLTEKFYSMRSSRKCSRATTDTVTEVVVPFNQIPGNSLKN

Compound | IC50 [nM]
3-[1,2,4]triazolo[1,5-a]pyrimidin-7-yl-N-[(1R,5S)-3,3-difluoro-5-(3-methyl-4H-1,2,4-triazol-4-yl)cyclohexyl]-5-(trifluoromethyl)benzenesulfonamide [Compound 9Ac] | 86
O=S(=O)(N[C@H]1CCC[C@@H](n2cnnc2)C1)c1cc(-c2cccc(F)c2)cc(C(F)(F)F)c1 [Compound 3As, 3′-fluoro-N-[(1S,3R)-3-(4H-1,2,4-triazol-4-yl)cyclohexyl]-5-(trifluoromethyl)biphenyl-3-sulfonamide] | 3.9
Cc1nncn1[C@@H]1CCC[C@H](NS(=O)(=O)c2ccc(-c3ccc(OC(F)(F)F)cc3)c(F)c2)C1 [Compound 2Fa, 2-fluoro-N-[(1S,3R)-3-(3-methyl-4H-1,2,4-triazol-4-yl)cyclohexyl]-4′-(trifluoromethoxy)biphenyl-4-sulfonamide] | 0.2
CCc1cc(-c2ccc(C(F)(F)F)cc2C(F)(F)F)ccc1S(=O)(=O)N[C@H]1CCC[C@@H](n2cnnc2)C1 [Compound 2Abm, 3-ethyl-N-[(1S,3R)-3-(4H-1,2,4-triazol-4-yl)cyclohexyl]-2′,4′-bis(trifluoromethyl)biphenyl-4-sulfonamide] | 83
CCc1cc(-c2ccc(OC(F)(F)F)cc2)ccc1S(=O)(=O)N[C@H]1CCC[C@@H](n2cnnc2)C1 [Compound 2b, 3-ethyl-N-[(1S,3R)-3-(4H-1,2,4-triazol-4-yl)cyclohexyl]-4′-(trifluoromethoxy)biphenyl-4-sulfonamide] | 3.6
CCc1cc(-c2cccc3cccnc23)cc(S(=O)(=O)N[C@@H]2C[C@H](n3cnnc3C)CC(F)(F)C2)c1 [Compound 3Da, N-[(1R,5S)-3,3-difluoro-5-(3-methyl-4H-1,2,4-triazol-4-yl)cyclohexyl]-3-ethyl-5-quinolin-8-ylbenzenesulfonamide] | 1.8
CCc1cc(-c2ccnnc2)cc(S(=O)(=O)N[C@H]2CCC[C@@H](n3cnnc3)C2)c1 [Compound 3Baz, 3-ethyl-5-pyridazin-4-yl-N-[(1S,3R)-3-(4H-1,2,4-triazol-4-yl)cyclohexyl]benzenesulfonamide] | 208
Cc1nncn1[C@@H]1CCC[C@H](NS(=O)(=O)c2ccc(-c3noc(C4CC4)n3)c(F)c2)C1 [Compound 2Fh, 4-(5-cyclopropyl-1,2,4-oxadiazol-3-yl)-3-fluoro-N-[(1S,3R)-3-(3-methyl-4H-1,2,4-triazol-4-yl)cyclohexyl]benzenesulfonamide] | 9.9
CCc1cc(-c2cscn2)ccc1S(=O)(=O)N[C@H]1CCC[C@@H](n2cnnc2)C1 [Compound 2Aay, 2-ethyl-4-(1,3-thiazol-4-yl)-N-[(1S,3R)-3-(4H-1,2,4-triazol-4-yl)cyclohexyl]benzenesulfonamide] | 69
Cc1nncn1[C@@H]1CCC[C@H](NS(=O)(=O)c2ccc(-c3cnc(Cl)c(F)c3)c(F)c2)C1 [Compound 2Fg, 4-(6-chloro-5-fluoropyridin-3-yl)-3-fluoro-N-[(1S,3R)-3-(3-methyl-4H-1,2,4-triazol-4-yl)cyclohexyl]benzenesulfonamide] | 36
CCc1cc(-c2cc(C(F)(F)F)cc(C(F)(F)F)c2)ccc1S(=O)(=O)N[C@H]1CCC[C@@H](n2cnnc2)C1 [Compound 2Abo, 3-ethyl-N-[(1S,3R)-3-(4H-1,2,4-triazol-4-yl)cyclohexyl]-3′,5′-bis(trifluoromethyl)biphenyl-4-sulfonamide] | 13
CCc1cc(-c2ccc(OC3CCC3)nc2)ccc1S(=O)(=O)N[C@H]1CCC[C@@H](n2cnnc2)C1 [Compound 2Aaq, 4-[6-(cyclobutyloxy)pyridin-3-yl]-2-ethyl-N-[(1S,3R)-3-(4H-1,2,4-triazol-4-yl)cyclohexyl]benzenesulfonamide] | 0.8
3-(2-cyclopropylpyrimidin-4-yl)-N-[(1R,5S)-3,3-difluoro-5-(3-methyl-4H-1,2,4-triazol-4-yl)cyclohexyl]-5-(trifluoromethyl)benzenesulfonamide [Compound 9Aa] | 2.2
Cc1cc(C)cc(S(=O)(=O)N[C@H]2CCC[C@@H](n3cnnc3)C2)c1 [Compound 2Me, 3,5-dimethyl-N-[(1S,3R)-3-(4H-1,2,4-triazol-4-yl)cyclohexyl]benzenesulfonamide] | 194
O=S(=O)(N[C@H]1CCC[C@@H](n2cnnc2)C1)c1cc(Cl)cc(Cl)c1 [2 Mh, 3,5-dichloro-N-[(1S,3R)-3-(4H-1,2,4-triazol-4-yl)cyclohexyl]benzenesulfonamide] | 194
Cc1nncn1[C@@H]1CCC[C@H](NS(=O)(=O)c2ccc(-c3ccc(OCC(F)(F)F)cc3)c(F)c2)C1 [Compound 2Fb, 2-fluoro-N-[(1S,3R)-3-(3-methyl-4H-1,2,4-triazol-4-yl)cyclohexyl]-4′-(2,2,2-trifluoroethoxy)biphenyl-4-sulfonamide] | 0.8
CCCCOc1ccc(S(=O)(=O)N[C@H]2CCC[C@@H](n3cnnc3C)C2)c(F)c1 [Compound 2Ji, 4-butoxy-2-fluoro-N-[(1S,3R)-3-(3-methyl-4H-1,2,4-triazol-4-yl)cyclohexyl]benzenesulfonamide] | 4
CCc1cc(-n2cnnn2)ccc1S(=O)(=O)N[C@H]1CCC[C@@H](n2cnnc2)C1 [Compound 5a, 2-ethyl-4-(1H-tetrazol-1-yl)-N-[(1S,3R)-3-(4H-1,2,4-triazol-4-yl)cyclohexyl]benzenesulfonamide] | 815
CCc1cc(-c2ccccc2OC(F)(F)F)ccc1S(=O)(=O)N[C@H]1CCC[C@@H](n2cnnc2)C1 [Compound 2Aaa, 3-ethyl-N-[(1S,3R)-3-(4H-1,2,4-triazol-4-yl)cyclohexyl]2′-(trifluoromethoxy)biphenyl-4-sulfonamide] | 44
Cc1nncn1[C@H]1C[C@@H](NS(=O)(=O)c2ccc(-c3ccc(OC(F)(F)F)cc3)c(F)c2)CC(F)(F)C1 [Compound 2Ha, N-[(1R,5S)-3,3-difluoro-5-(3-methyl-4H-1,2,4-triazol-4-yl)cyclohexyl]-2-fluoro-4′-(trifluoromethoxy)biphenyl-4-sulfonamide] | 1.4
Cc1nncn1[C@@H]1CCC[C@H](NS(=O)(=O)c2ccc(-c3ccc(OC(C)C)nc3)c(F)c2)C1 [Compound 2Fe, 3-fluoro-4-(6-isopropoxypyridin-3-yl)-N-[(1S,3R)-3-(3-methyl-4H-1,2,4-triazol-4-yl)cyclohexyl]benzenesulfonamide] | 3.6
O=S(=O)(N[C@H]1CCC[C@@H](n2cnnc2)C1)c1cc(-c2ccn3ncnc3c2)cc(C(F)(F)F)c1 [Compound 3Aal, 3-[1,2,4]triazolo[1,5-a]pyridin-7-yl-N-[(1S,3R)-3-(4H-1,2,4-triazol-4-yl)cyclohexyl]-5-(trifluoromethyl)benzenesulfonamide] | 42
O=S(=O)(N[C@H]1CCC[C@@H](n2cnnc2)C1)c1cc(OC(F)(F)F)cc(-c2ccccc2)c1 [Compound 3Ea, N-[(1S,3R)-3-(4H-1,2,4-triazol-4-yl)cyclohexyl]-5-(trifluoromethoxy)biphenyl-3-sulfonamide] | 10
CCc1cc(-c2ccc(OC(F)(F)F)c(F)c2)ccc1S(=O)(=O)N[C@H]1CCC[C@@H](n2cnnc2)C1 [Compound 2Aac, 3-ethyl-3′-fluoro-N-[(1S,3R)-3-(4H-1,2,4-triazol-4-yl)cyclohexyl]-4′-(trifluoromethoxy)biphenyl-4-sulfonamide] | 13
